# Laboratory results published in patent publication US20070225363A1, “Methods and Agents for Inhibiting Dynamin-Dependent Endocytosis” (the University of Newcastle Research Associates Ltd., priority 2003, published 2007).
# Entries after “also recorded” stand apart in the source; their conditions may differ.
# Tests used:
# HER14 cells = assay: Texas Red-transferrin uptake in HER14 cells; assay type: cell-based; conditions: drug added 15 or 60 minutes before Tf-TxR
# Procedure: Transferrin (Tf) uptake was analysed in Swiss 3T3 and HER14 cells based on methods previously described (van der Bliek et al., 1993). Briefly, cells were plated to 60% confluency in DMEM medium plus 10% foetal calf serum after which the cells were incubated overnight (8-10 hours) in DMEM minus foetal calf serum. Texas red-transferrin (Tf-TxR, Molecular Probes, Oregon) was added to a final concentration of 5 μg/ml and the cells incubated at 37° C. for 10 minutes. Cell surface staining was removed by incubating the cells in an ice cold acid wash solution (0.2 M acetic acid +0.5 M NaCl, pH 2.8) for 15 minutes. Cells were immediately fixed with 4% paraformaldehyde for 10 minutes then washed 3 times with PBS. Nuclei were stained using DAPI (Molecular Probes, Oregon). Slides were mounted using DABCO and the fluorescence was monitored using a Leica DMLB bright field microscope and SPOT digital camera.
# ΔPH domain dynamin I = assay: GTPase assay with recombinant dynamin I lacking the PH domain; assay type: biochemical
# Procedure: The plasmid for GST-Amph2-SH3 (muscle Amph2) (Butler et al., 1997) was provided by Pieto DeCamilli, Yale, Connecticut, USA, in pGEX2T vectors. The plasmid was grown in E. coli and the GST-Amph2-SH3 fusion protein was purified on glutathione (GSH)-Sepharose by elution with 10 mM reduced GSH in 20 mM Tris-HCl, pH 7.5, dialysed against the same buffer without GSH and stored at 4° C. Dynamin was purified from sheep brain by extraction from the peripheral membrane fraction of whole brain (Robinson et al., 1993) and affinity purification on GST-Amph2-SH3-sepharose as previously described (Marks and McMahon., 1998), yielding 8 mg protein from 250 g sheep brain. Recombinant dynamin II was expressed in insect cells and was a gift from Dr Sandra Schmid (Scripps, San Diego, Calif.). Recombinant dynamin I lacking the PH domain (dynamin PH, provided by Robin Scaife) was expressed in insect cells using baculoviral infection (Salim et al., 1996).
# Dynamin GTPase activity was determined by hydrolysis of [ ? -^32P]GTP by a method modified from that described previously (Robinson et al., 1993). Briefly, purified dynamin I or dynamin II (0.2 μg/tube) was incubated in GTPase buffer (10 mM Tris, 10 mM NaCl, 2 mM Mg^2+, 0.05% Tween 80, pH 7.4, 1 μg/ml leupeptin and 0.1 mM PMSF) and a GTP cocktail containing 0.3 mM GTP and 1.3 μCi [ ? -^32P]-GTP in the presence or absence of varying concentrations of inhibitors or DMSO vehicle for 10 min at 30 C. The final assay volume was 40 μl. Dynamin activity was measured as either basal or phospholipid-stimulated with the addition of 5 μg/ml L-phosphatidylserine. The reaction was terminated with 100 μl of GTPase stop buffer (2% formic add, 8% acetic acid, pH 1.9), followed by 600 μl of acid-washed charcoal solution (7% charcoal in acidic solution (w/v)) and 100 μl BSA (5 mg/ml). After centrifuging for 5 min (13,000 rpm at room temperature), 200 μl of each supernatant was counted in a -counter for the release of ^32Pi from [ ? -^32P]-GTP. […]
# [1] = tested on: isolated nerve terminals (synaptosomes); assay: Glutamate release assay (exocytosis) in synaptosomes; assay type: cell-based, rat; conditions: 30 mM KCl
# Procedure: The glutamate release assay was performed using enzyme-linked fluorescent detection of released glutamate (Cousin and Robinson., 2000a, b). Briefly, synaptosomes (0.6 mg in 2 ml) were resuspended in either plus (1.2 mM CaCl2) or minus (1 mM EGTA) Ca^2+ Krebs-like solution (118.5 mM NaCl, 4.7 mM KCl, 1.18 mM MgCl2, 0.1 mM Na2HPO4, 20 mM Hepes, 10 mM glucose, pH 7.4) at 37° C. Experiments were started after addition of 1 mM NADP^+. After 1 minute 50 U of glutamate dehydrogenase was added and the synaptosome suspension was stimulated after 4 minutes with 30 mM KCl. Increases in fluorescence due to production of NADPH were monitored in a Perkin-Elmer LS-50B spectrofluorimeter at 340 nm excitation and 460 nm emission. Experiments were standardised by the addition of 4 nmol of glutamate. Data is presented as Ca^2+-dependent glutamate release, calculated as the difference between release in plus and minus Ca^2+ solution for identical stimulation conditions.
# dynamin II = assay: [α-32P]-GTP binding assay, dynamin II
# Procedure: The [α-^32P]-GTP-binding assay was performed in the wells of a 96-well microtitre plate. Dynamin (0.2 μg/well) was added to GTPase buffer and incubated for 10 min at 4 C in the dark. [α-^32P]-GTP (2 μCi/tube) was then added to the reaction and incubated for a further 10 min at 4 C. in the dark. The microtitre plate was then irradiated with a short wavelength ultraviolet lamp at […] for 30 min at a distance of 8 cm. The specificity of photolabelling was determined by comparing the labelling in the presence and absence of 1 mM cold GTP. Samples were then applied to nitrocellulose membranes by aspiration through the wells of a 24 well slot blotter. The nitrocellulose was washed 3 times with PBS and dried. Bound nucleotide was detected by a phosphorimager (Molecular Dynamics).
# RalA = target: T1, RalA (Homo sapiens, UniProt P11233); assay: [α-32P]-GTP binding to small G protein RalA; conditions: data not shown
# T1 sequence (P11233 1-206): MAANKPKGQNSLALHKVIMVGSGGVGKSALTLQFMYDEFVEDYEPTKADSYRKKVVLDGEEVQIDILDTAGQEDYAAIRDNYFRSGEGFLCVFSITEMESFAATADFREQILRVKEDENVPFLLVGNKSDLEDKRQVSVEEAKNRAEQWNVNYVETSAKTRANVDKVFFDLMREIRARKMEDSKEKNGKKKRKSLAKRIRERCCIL
# Procedure: Competition of these drugs with GTP for the active site of 4 small G proteins (Rab3A, Ras, Arf2, RalA) was also tested.
compound,measurement,setting,value
N#C/C(=C\c1ccc(O)c(O)c1)C(=O)NCCCNC(=O)/C(C#N)=C/c1ccc(O)c(O)c1 [bis-tyrphostin],internalisation of texas-red labelled transferrin into HER14 cells,HER14 cells,very large decrease in transferrin staining; also recorded: inhibited
same,ability to inhibit GTPase activity of dynamin I lacking the PH domain,ΔPH domain dynamin I,still inhibits
same,inhibition of ΔPH domain dynamin I GTP hydrolysis,ΔPH domain dynamin I; at 10 μM,more than 50%
same,exocytosis (Ca2+-dependent glutamate release),[1],no effect
same,[α-32P]-GTP binding to dynamin II in the presence of drug,dynamin II,not seen to decrease; also recorded: not affected
same,effect on [α-32P]-GTP binding to RalA,RalA,neither drug affected
